Data taken from patent US20130065818A1, “Arylamide Compounds And Compositions And Uses Thereof” (POLYMEDIX, priority 2006, published 2013).
Values after ≈ are worked out from the molar mass of the structure shown. Read-outs that look alike come from different tables or passages of the source.

Key:
[1] = tested on: E. faecalis ATCC 29212; assay: MIC, laboratory strains (Example 8); format: cell-based
[2] = tested on: Staphylococcus epidermidis (Coagulase-negative Staphylococcus) fluoroquinolone-susceptible; assay: MIC, 25 ocular isolates, broth microdilution (Example 8); format: cell-based
Method in brief: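 Broth microdilution in Mueller-Hinton broth, polypropylene plates, inoculum from 0.5 McFarland suspension diluted 0.05 ml into 5 ml; final test agent 64–0.0625 μg/ml (128–0.125 μg/ml for P. aeruginosa) in 0.01% acetic acid, 0.2% BSA diluent. Incubated 37° C overnight; MIC read visually as lowest concentration inhibiting visible growth.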

[3] = 25 isolates, Summary of Results, <0.0625 was Replaced with 0.03125
[4] = Staphylococcus epidermidis, 25 ocular isolates, read-out: Median MIC
[5] = Staphylococcus epidermidis, isolate 1—E511, read-out: MIC
[6] = Staphylococcus epidermidis, isolate 2—E489, read-out: MIC
[7] = Staphylococcus epidermidis, isolate 3—E491, read-out: MIC
[8] = Staphylococcus epidermidis, isolate 4—E476, read-out: MIC
[9] = Staphylococcus epidermidis, isolate 5—E473, read-out: MIC
[10] = Staphylococcus epidermidis, isolate 6—E462, read-out: MIC
[11] = Staphylococcus epidermidis, isolate 7—E460, read-out: MIC
[12] = Staphylococcus epidermidis, isolate 8—E453, read-out: MIC
[13] = Staphylococcus epidermidis, isolate 9—E448, read-out: MIC
[14] = Staphylococcus epidermidis, isolate 10—E443, read-out: MIC
[15] = Staphylococcus epidermidis, isolate 11—E441, read-out: MIC
[16] = Staphylococcus epidermidis, isolate 12—E438, read-out: MIC
[17] = Staphylococcus epidermidis, isolate 13—E437, read-out: MIC
[18] = Staphylococcus epidermidis, isolate 14—E434, read-out: MIC
[19] = Staphylococcus epidermidis, isolate 15—E433, read-out: MIC
[20] = Staphylococcus epidermidis, isolate 16—E430, read-out: MIC
[21] = Staphylococcus epidermidis, isolate 17—E420, read-out: MIC
[22] = Staphylococcus epidermidis, isolate 18—E419, read-out: MIC
[23] = Staphylococcus epidermidis, isolate 19—E403, read-out: MIC
[24] = Staphylococcus epidermidis, isolate 20—E394, read-out: MIC
[25] = Staphylococcus epidermidis, isolate 21—E393, read-out: MIC
[26] = Staphylococcus epidermidis, isolate 22—E328, read-out: MIC
[27] = Staphylococcus epidermidis, isolate 23—E382, read-out: MIC
[28] = Staphylococcus epidermidis, isolate 24—E381, read-out: MIC
[29] = Staphylococcus epidermidis, isolate 25—E372, read-out: MIC
[30] = Staphylococcus epidermidis, n=25 per group, read-out: Median MIC
[31] = Staphylococcus epidermidis, 25 isolates, Summary of Results, read-out: MIC50
[32] = Staphylococcus epidermidis, 25 isolates, Summary of Results, read-out: MIC90
[33] = Staphylococcus epidermidis, 25 isolates, Summary of Results, read-out: Median MIC

| SMILES | MIC [1] | MIC50 ([2]; 25 isolates, Row 13) | MIC90 ([2]; 25 isolates, Row 22) | Range of MICs [2, 3] | MIC [2, 4] | MIC [2, 5] | MIC [2, 6] | MIC [2, 7] | MIC [2, 8] | MIC [2, 9] | MIC [2, 10] | MIC [2, 11] | MIC [2, 12] | MIC [2, 13] | MIC [2, 14] | MIC [2, 15] | MIC [2, 16] | MIC [2, 17] | MIC [2, 18] | MIC [2, 19] | also measured |
| --- | --- | --- | --- | --- | --- | --- | --- | --- | --- | --- | --- | --- | --- | --- | --- | --- | --- | --- | --- | --- | --- |
| N=C(N)NCCCCC(=O)Nc1cc(C(F)(F)F)cc(NC(=O)c2cnc(C(=O)Nc3cc(C(F)(F)F)cc(NC(=O)CCCCNC(=N)N)c3SCCN)cn2)c1SCCN [Oligomer 5] | 1.56 µg/mL (≈ 1.7 µM) | 0.125 µg/mL (≈ 0.136 µM) | 0.25 µg/mL (≈ 0.273 µM) | 0.03125 to 0.25 µg/mL | ≤ 0.25 µg/mL | 0.25 µg/mL (≈ 0.273 µM) | 0.125 µg/mL (≈ 0.136 µM) | 0.125 µg/mL (≈ 0.136 µM) | 0.25 µg/mL (≈ 0.273 µM) | 0.125 µg/mL (≈ 0.136 µM) | 0.125 µg/mL (≈ 0.136 µM) | 0.125 µg/mL (≈ 0.136 µM) | 0.125 µg/mL (≈ 0.136 µM) | 0.125 µg/mL (≈ 0.136 µM) | < 0.0625 µg/mL | 0.125 µg/mL (≈ 0.136 µM) | 0.125 µg/mL (≈ 0.136 µM) | 0.125 µg/mL (≈ 0.136 µM) | 0.125 µg/mL (≈ 0.136 µM) | 0.125 µg/mL (≈ 0.136 µM) | MIC [2, 20]: 0.125 µg/mL (≈ 0.136 µM); MIC [2, 21]: 0.125 µg/mL (≈ 0.136 µM); MIC [2, 22]: 0.125 µg/mL (≈ 0.136 µM); MIC [2, 23]: 0.125 µg/mL (≈ 0.136 µM); MIC [2, 24]: 0.125 µg/mL (≈ 0.136 µM); MIC [2, 25]: 0.125 µg/mL (≈ 0.136 µM); MIC [2, 26]: 0.25 µg/mL (≈ 0.273 µM); MIC [2, 27]: 0.125 µg/mL (≈ 0.136 µM); MIC [2, 28]: 0.25 µg/mL (≈ 0.273 µM); MIC [2, 29]: < 0.0625 µg/mL; MIC [2, 30]: 0.125 µg/mL (≈ 0.136 µM); MIC50 [2, 31]: 0.125 µg/mL (≈ 0.136 µM); MIC90 [2, 32]: 0.25 µg/mL (≈ 0.273 µM); MIC [2, 33]: 0.125 µg/mL (≈ 0.136 µM); MIC50 ([2]; n=25 per group): 0.125 µg/mL (≈ 0.136 µM); MIC90 ([2]; n=25 per group): 0.25 µg/mL (≈ 0.273 µM); Range of MICs ([2]; n=25 per group): 0.03125 to 0.25 µg/mL |
| N=C(N)NCCCCC(=O)Nc1cc(C(F)(F)F)cc(NC(=O)c2cc(C(=O)Nc3cc(C(F)(F)F)cc(NC(=O)CCCCNC(=N)N)c3O[C@@H]3CCNC3)ncn2)c1O[C@@H]1CCNC1 [Oligomer 4] | 0.78 µg/mL (≈ 0.833 µM) | 0.125 µg/mL (≈ 0.133 µM) | 0.25 µg/mL (≈ 0.267 µM) | 0.03125 to 0.25 µg/mL | ≤ 0.25 µg/mL | 0.25 µg/mL (≈ 0.267 µM) | 0.125 µg/mL (≈ 0.133 µM) | 0.125 µg/mL (≈ 0.133 µM) | 0.25 µg/mL (≈ 0.267 µM) | 0.25 µg/mL (≈ 0.267 µM) | 0.125 µg/mL (≈ 0.133 µM) | 0.125 µg/mL (≈ 0.133 µM) | 0.125 µg/mL (≈ 0.133 µM) | 0.125 µg/mL (≈ 0.133 µM) | < 0.0625 µg/mL | < 0.0625 µg/mL | 0.125 µg/mL (≈ 0.133 µM) | 0.125 µg/mL (≈ 0.133 µM) | 0.125 µg/mL (≈ 0.133 µM) | 0.125 µg/mL (≈ 0.133 µM) | MIC, sorted list for MIC50 and MIC90 Determinations (QSSE-A) ([2]; 25 isolates sorted ascending, Row 1-25, <0.0625 was Replaced with 0.03125): 0.25 µg/mL; MIC [2, 20]: < 0.0625 µg/mL; MIC [2, 21]: 0.125 µg/mL (≈ 0.133 µM); MIC [2, 22]: 0.125 µg/mL (≈ 0.133 µM); MIC [2, 23]: 0.125 µg/mL (≈ 0.133 µM); MIC [2, 24]: 0.125 µg/mL (≈ 0.133 µM); MIC [2, 25]: 0.125 µg/mL (≈ 0.133 µM); MIC [2, 26]: 0.25 µg/mL (≈ 0.267 µM); MIC [2, 27]: 0.125 µg/mL (≈ 0.133 µM); MIC [2, 28]: 0.125 µg/mL (≈ 0.133 µM); MIC [2, 29]: 0.25 µg/mL (≈ 0.267 µM); MIC [2, 30]: 0.125 µg/mL (≈ 0.133 µM); MIC50 [2, 31]: 0.125 µg/mL (≈ 0.133 µM); MIC90 [2, 32]: 0.25 µg/mL (≈ 0.267 µM); MIC [2, 33]: 0.125 µg/mL (≈ 0.133 µM); MIC50 ([2]; n=25 per group): 0.125 µg/mL (≈ 0.133 µM); MIC90 ([2]; n=25 per group): 0.25 µg/mL (≈ 0.267 µM); Range of MICs ([2]; n=25 per group): 0.03125 to 0.25 µg/mL |
